In patent US20260364184A1, “COMPOUND BASED ON OXOISOINDOLINYL-SUBSTITUTED TETRAHYDROPYRIMIDINE-DIONE AND USE THEREOF” (GLUETACS THERAPEUTICS (SHANGHAI) CO., LTD., priority 2023, published 2026):
Where two headings read alike, the source gives them in different places.

Legend:
Format in all cases: cell-based
IRAK4 = target: T1, IRAK4 (Homo sapiens, UniProt Q9NWZ3); test: Western blot degradation of IRAK4; conditions: hPBMC Cell; 24 hours
T1 construct: expression of target proteins in cells; endogenous in cells
T1 sequence (Q9NWZ3 1-460): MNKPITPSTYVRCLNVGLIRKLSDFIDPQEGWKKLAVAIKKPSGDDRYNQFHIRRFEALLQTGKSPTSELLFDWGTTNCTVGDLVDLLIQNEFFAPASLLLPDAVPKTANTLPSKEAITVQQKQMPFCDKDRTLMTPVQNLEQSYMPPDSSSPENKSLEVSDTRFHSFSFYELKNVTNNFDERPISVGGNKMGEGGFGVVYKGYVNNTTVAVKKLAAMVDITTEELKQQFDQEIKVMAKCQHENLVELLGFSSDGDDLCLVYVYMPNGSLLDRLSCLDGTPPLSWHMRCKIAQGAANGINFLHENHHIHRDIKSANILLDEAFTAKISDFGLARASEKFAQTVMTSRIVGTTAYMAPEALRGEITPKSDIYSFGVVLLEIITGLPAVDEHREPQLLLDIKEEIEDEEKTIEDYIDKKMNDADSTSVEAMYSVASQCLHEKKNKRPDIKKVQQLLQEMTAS
Protocol: Conventional Western blot assay was performed to evaluate the effects of the compounds of the present disclosure on the expression of target proteins in cells.
(1) Cell Seeding and Protein Harvesting: The selected cells were processed according to the cell seeding procedure and protein harvesting procedure in Table II-2.
(2) To the collected supernatant, 5×SDS sample loading buffer was added, followed by denaturation at 95 °C for 5 minutes. The denatured samples were then separated by SDS-PAGE electrophoresis on a polyacrylamide gel. Proteins were transferred to a nitrocellulose membrane (0.45 μm NC membrane), blocked with blocking buffer at room temperature for 1 hour, and subjected to antibody incubation and development procedures according to the antibody manufacturer's instructions (Cell Signaling Technology).
Half-Maximal Degradation Concentration value (the drug concentration required for degrading proteins by 50%, abbreviated as DC50) reads method: comparing the grayscale values of Western blot bands from drug-treated samples with those from blank DMSO-treated controls, and identifying the drug concentration range at which the grayscale value is half that of the DMSO-treated control bands.
DC50 values can be calculated using ImageJ software to measure grayscale values of Western blot bands from drug-treated samples. The concentration-response curve is fitted to estimate the drug concentration corresponding to half the grayscale value.
Target protein remaining (%) refers to the percentage of target protein remaining in cells after treatment with protein degrader compounds.
Calculation method for target protein remaining (%): Use ImageJ software to measure grayscale values of Western blot bands from drug (protein degrader)-treated samples. The grayscale value of drug-treated bands is divided by that of internal control protein bands, and the resulting quotient is normalized to obtain the relative percentage of remaining target protein after protein degrader treatment.
Target protein degradation rate (%)=1−target protein remaining (%).

[1] = tested on: Human Acute T Lymphoblastic Leukemia Cells (Molt-4); test: Inhibition of Molt-4 cell proliferation (CellTiter luminescent viability); conditions: Homo sapiens; for inhibition at 0.01 µM: read-out: Inhibition Rate at 10 nM (%); for inhibition at 0.5 µM: read-out: Inhibition Rate at 500 nM (%)
Protocol: (§1) The tumor cells used herein were cultured in a cell culture medium listed in table 3 at 37 °C in an incubator with 5% CO2. Prior to experimentation, all cell lines used were correctly identified by STR profiling, and tested negative for mycoplasma contamination using a mycoplasma detection kit through routine screenings.
(§2) The IC50 values of the compounds of the present disclosure (including the compounds in Table 1, Table 2, and Examples 1-468) were determined using the CellTiter-Meiluncell Luminescent Cell Viability Assay Kit from Dalian Meilun Biotech Co., Ltd. The detailed procedure is as follows: Tumor cells were seeded in 96-well cell culture plates at the densities specified in Table 4. On the following day, the test compounds of the present disclosure were subjected to serial dilution. The dilution can be performed according to one of the following two methods: • (1) The first dilution method: The test compounds of the present disclosure (including the compounds in Table 1, Table 2, and Examples 1-468) were subjected to 5-fold serial dilutions starting from a highest concentration of 2000 μM, resulting in a total of 9 concentrations from high to low (2000, 400, 80, 16, 3.2, 0.64, 0.128, 0.0256, 0.00512 μM). Subsequently, 0.5 μL of the test compound dilution was transferred into the 96-well plate containing the cells, with each well containing 100 μL of cell culture medium. […] Into the 96-well plate, the diluted test compounds and corresponding detection reagents were added, resulting in final test compound concentrations of 500 nM and 10 nM, respectively. The experimental procedure is described below using the diluted 2 μM test compound as an example.
(§3) 0.5 μL of the aforementioned diluted compound of the present disclosure (including the compounds in Table 1, Table 2, and Examples 1-468) was added to the seeded cells in 100 μL of medium, yielding a final test compound concentration of 10 nM. After the cells were treated with the compounds of the present disclosure for a specified period, the cell viability assay reagent was added to the culture medium according to the kit's instructions to determine cell viability. […] All controls were treated using the same procedure as the compounds of the present disclosure. The growth inhibition curves for the compounds of the present disclosure were plotted using Prism GraphPad software, and the IC50 values were calculated therefrom.

[2] = tested on: Human Multiple myeloma cell line (MM.1S); test: Inhibition of MM.1S cell proliferation (CellTiter luminescent viability); conditions: Homo sapiens, MM1.S, Table IA5, IRAK4 inhibitor-based, 96 hours
Protocol: as §1, §2, §3

[3] = MOLT-4, Molt-4, 10 nM, Table IN3
[4] = MOLT-4, Molt-4, 500 nM, Table IN3
[5] = MOLT-4, 96 h, Table IA2, IRAK4 inhibitor-based, Molt-4, 10 nM, 96 hours
[6] = MOLT-4, 96 h, Table IA2, IRAK4 inhibitor-based, Molt-4, 500 nM, 96 hours

Degradation of substrate protein IRAK4 (substrate protein remaining %) (IRAK4) | Compound | inhibition at 0.01 µM [1, 5] [%] | inhibition at 0.5 µM [1, 6] [%] | other results
A (0%≤substrate protein remaining %≤80%) | O=C1CCN(N2C(=O)c3ccc(N4CC5CC(C4)N5C[C@H]4CC[C@H](n5cc(NC(=O)c6cnn7ccc(N8C[C@H]9C[C@@H]8CO9)nc67)c(C(F)F)n5)CC4)cc3C2=O)C(=O)N1 [GT-05822, 5-((1R,4R)-2-oxa-5-azabicyclo[2.2.1]heptan-5-yl)-N-(3-(difluoromethyl)-1-((1r,4R)-4-((3-(2-(2,4-dioxotetrahydropyrimidin-1(2H)-yl)-1,3-dioxoisoindolin-5-yl)-3,6-diazabicyclo[3.1.1]heptan-6-yl)methyl)cyclohexyl)-1H-pyrazol-4-yl)pyrazolo[1,5-a]pyrimidine-3-carboxamide] | – | – | –
A (0%≤substrate protein remaining %≤80%) | O=C1CCN(N2C(=O)c3cccc(N4CCN(C[C@H]5CC[C@H](n6cc(NC(=O)c7cnn8ccc(N9C[C@H]%10C[C@@H]9CO%10)nc78)c(C(F)F)n6)CC5)CC4)c3C2=O)C(=O)N1 [GT-05241, 5-((1R,4R)-2-oxa-5-azabicyclo[2.2.1]heptan-5-yl)-N-(3-(difluoromethyl)-1-((1r,4R)-4-((4-(2-(2,4-dioxotetrahydropyrimidin-1(2H)-yl)-1,3-dioxoisoindolin-4-yl)piperazin-1-yl)methyl)cyclohexyl)-1H-pyrazol-4-yl)pyrazolo[1,5-a]pyrimidine-3-carboxamide] | – | – | –
A (0%≤substrate protein remaining %≤80%) | O=C1CCN(N2C(=O)c3ccc(N4CCN(C[C@H]5CC[C@H](n6cc(NC(=O)c7cnn8ccc(N9C[C@H]%10C[C@@H]9CO%10)nc78)c(C(F)F)n6)CC5)CC4)c(F)c3C2=O)C(=O)N1 [GT-05827, 5-((1R,4R)-2-oxa-5-azabicyclo[2.2.1]heptan-5-yl)-N-(3-(difluoromethyl)-1-((1r,4R)-4-((4-(2-(2,4-dioxotetrahydropyrimidin-1(2H)-yl)-4-fluoro-1,3-dioxoisoindolin-5-yl)piperazin-1-yl)methyl)cyclohexyl)-1H-pyrazol-4-yl)pyrazolo[1,5-a]pyrimidine-3-carboxamide] | – | – | –
A (0%≤substrate protein remaining %≤80%) | COc1cc2nn([C@H]3CC[C@H](CN4CCN(c5cccc6c5C(=O)N(N5CCC(=O)NC5=O)C6=O)CC4)CC3)cc2cc1NC(=O)c1cccc(C(F)(F)F)n1 [GT-08655, N-(2-((1r,4r)-4-((4-(2-(2,4-dioxotetrahydropyrimidin-1(2H)-yl)-1,3-dioxoisoindolin-4-yl)piperazin-1-yl)methyl)cyclohexyl)-6-methoxy-2H-indazol-5-yl)-6-(trifluoromethyl) picolinamide] | – | – | –
– | C[C@@H]1CNC(=O)c2cc3ccc(C(=O)Nc4cnn(Cc5ccc(N6CCC(N7CCN(CC8CCN(c9cccc%10c9C(=O)N(N9CCC(=O)NC9=O)C%10=O)CC8)CC7)CC6)cc5)c4)nc3n21 [GT-08344, (R)—N-(1-(4-(4-(4-((1-(2-(2,4-dioxotetrahydropyrimidin-1(2H)-yl)-1,3-dioxoisoindolin-4-yl)piperidin-4-yl)methyl)piperazin-1-yl)piperidin-1-yl)benzyl)-1H-pyrazol-4-yl)-9-methyl-6-oxo-6,7,8,9-tetrahydropyrido[3′,2′: 4,5]pyrrolo[1,2-a]pyrazine-2-carboxamide] | – | – | inhibition at 0.01 µM [1, 3]: 5 to 10%; inhibition at 0.5 µM [1, 4]: 80 to 100%
– | COc1cc2nn([C@H]3CC[C@H](CN4C[C@H]5C[C@@H]4CN5c4ccc5c(c4)C(=O)N(N4CCC(=O)NC4=O)C5=O)CC3)cc2cc1NC(=O)c1cccc(C(F)(F)F)c1 [GT-08663, N-(2-((1R,4r)-4-(((1R,4R)-5-(2-(2,4-dioxotetrahydropyrimidin-1(2H)-yl)-1,3-dioxoisoindolin-5-yl)-2,5-diazabicyclo[2.2.1]heptan-2-yl)methyl)cyclohexyl)-6-methoxy-2H-indazol-5-yl)-3-(trifluoromethyl)benzamide] | 10 to 15 | 15 to 20 | –
– | Cc1cc(-c2nc(C(=O)Nc3cc4oc(N5CCOCC5)nc4nc3N3CC[C@@H](O)C3)co2)ccn1 [emavusertib, Emavusertib, reference compound] | 3 to 7 | 0 to 3 | –
– | Cn1c(=O)n(C2CCC(=O)NC2=O)c2cccc(C#CCOC3CCN(C[C@H]4CC[C@H](n5cc(NC(=O)c6cnn7ccc(N8C[C@H]9C[C@@H]8CO9)nc67)c(C(F)F)n5)CC4)CC3)c21 (some centres unmarked) [KT-474, reference compound] | 7 to 10 | 7 to 10 | inhibition at 0.01 µM ([2]; 10 nM, read-out: Inhibition Rate at 10 nM (%)): 5 to 10%; inhibition at 0.5 µM ([2]; 500 nM, read-out: Inhibition Rate at 500 nM (%)): 15 to 20%
– | C[C@@H]1CNC(=O)c2cc3ccc(C(=O)Nc4cnn(Cc5ccc(N6CCC(N7CCN(CC8CCN(c9ccc%10c(c9)C(=O)N(N9CCC(=O)NC9=O)C%10=O)CC8)CC7)CC6)cc5)c4)nc3n21 [GT-08343, (R)—N-(1-(4-(4-(4-((1-(2-(2,4-dioxotetrahydropyrimidin-1(2H)-yl)-1,3-dioxoisoindolin-5-yl)piperidin-4-yl)methyl)piperazin-1-yl)piperidin-1-yl)benzyl)-1H-pyrazol-4-yl)-9-methyl-6-oxo-6,7,8,9-tetrahydropyrido[3′,2′: 4,5]pyrrolo[1,2-a]pyrazine-2-carboxamide] | – | – | inhibition at 0.01 µM ([1]; MOLT-4, Molt-4, 10 nM, Table IN2): 20 to 30%; inhibition at 0.01 µM [1, 3]: 30 to 40%; inhibition at 0.5 µM ([1]; MOLT-4, Molt-4, 500 nM, Table IN2): 30 to 50%; inhibition at 0.5 µM [1, 4]: 60 to 70%
– | COc1cc2nn([C@H]3CC[C@H](CN4CC5CCC(C4)N5c4ccc5c(c4)C(=O)N(N4CCC(=O)NC4=O)C5=O)CC3)cc2cc1NC(=O)c1cccc(C(F)(F)F)c1 [GT-08665, N-(2-((1r,4r)-4-((8-(2-(2,4-dioxotetrahydropyrimidin-1(2H)-yl)-1,3-dioxoisoindolin-5-yl)-3,8-diazabicyclo[3.2.1]octan-3-yl)methyl)cyclohexyl)-6-methoxy-2H-indazol-5-yl)-3-(trifluoromethyl)benzamide] | 15 to 20 | 15 to 20 | –
